Results: patent publication US20160237146A1, “Methods of Preventing or Reducing Photoreceptor Cell Death” (MASSACHUSETTS EYE AND EAR INFIRMARY, priority 2013, published 2016)
“Also recorded” adds a separate entry of the source.

Assays:
[1] = system: photoreceptor cell death in response to RD; experiment: Mouse model of retinal detachment, TUNEL labeling of the ONL; assay type: in vivo, mice
Protocol: Briefly, RD was created in the right eye of adult mice (8-12 weeks), as previously reported (Hisatomi, T. et al., Am J Pathol, 2001, 158:1271-1278), with minor modification. Briefly, mice were anesthetized using a mixture of ketamine (80 mg/kg) and xylazine (8 mg/kg). Deep anesthesia was confirmed by a toe pinch test. One drop of proparacaine hydrochloride (0.5%) (Akorn, 17478-263-12) was administered to each eye. A self-sealing scleral incision was made using a 30 G needle. Next, an anterior chamber puncture was performed from the cornea to reduce intraocular pressure. A 33 G needle attached to a Hamilton 10 μl syringe was inserted into the subretinal space, and 4 μl sodium hyaluronate (Provisc®, Alcon) was gently injected to enlarge the RD (fundus Image of a retinal detachment; FIG. 7A) (Matsumoto, H. et al., J Vis Exp, 2013, (79)). After the injection, glue (Webglue™) was put on the scleral wound and the conjunctiva reattached to the original position. Photoreceptor apoptosis was assessed (12-72 hours post detachment) by identifying TUNEL positive cells in cross sections (FIGS. 7C and D).
Twenty-four hours post-injury, retinas were isolated and cross-sections were prepared for staining with DAPI (a nuclear marker) and TUNEL (a cell death marker). The mid-point of the retinal arc between the optic nerve and the edge of the retina was quantified for TUNEL positive cells.
The model of retinal detachment was performed precisely as described above with one modification: Prior to injecting the provisc 1 μl of the purified C3 antibody (0.1 μg) or IgG2a isotype control (Life Technologies, 02-9688) was injected into the sub-retinal space through the scleral tunnel. The eyes were enucleated 24 hours after RD and processed for TUNEL labeling as described earlier.

Fb = settings: retina 24 hours after RD, mice kept in 75% oxygen vs room air
Protocol: RNA was isolated using an RNeasy micro kit (Qiagen, 74004, Valencia, Calif.) for LCM samples or an RNeasy mini kit (Qiagen, 74106, Valencia, Calif.) for whole retina. Total RNA was measured using a nanodrop spectrophotometer (Thermo Scientific, Nanodrop 2000, Waltham, Mass.) then each sample was normalized prior to transcribing cDNA. cDNA was transcribed using superscript III (Invitrogen, 18080-044, Carlsbad, Calif.) then one microliter of cDNA was used for each RTPCR reaction. […] Primers for Cd55 using photoreceptors isolated by LCM were obtained through Integrated DNA Technologies using their online Primer Quest design tool and importing the NCBI ID number for the sequence (Forward 5′-[sequence]-3′ (SEQ ID NO: 5) and Reverse 5′-[sequence]-3′ (SEQ ID NO: 6)). RTPCR was run in triplicate and the average of each CT value used for analysis. All CT values were normalized to beta actin from each sample as an internal control. Final values were determined using the MET method.
After 24 hours the mice were anesthetized under a heavy dose of avertin (2,2,2 tribromo ethanol, Sigma, T4, 840-2) at a working concentration of 10 mg/ml and injected at a dose of 0.25-0.5 mg/gram intraperitoneally. In one group the eyes were enucleated and frozen in OCT compound using isopropanol chilled by dry ice. The eyes were then processed for TUNEL labeling and quantified as described above. […]

| Compound | photoreceptor cell death (TUNEL positive cells in the ONL) ([1]; C3-/- mice, sub-retinal injection prior to Provisc, 24 hours after RD, vs PBS) | Fb expression, alternative pathway activation (Fb) | cell death (TUNEL positive cells in the ONL) ([1]; mice housed 24 hours after RD in a 75% oxygen chamber vs room air (approximately 21% oxygen)) |
| --- | --- | --- | --- |
| cobra venom factor [CVF] | significant up-regulation of photoreceptor cell death; also recorded: increased photoreceptor cell death after RD |  |  |
| O=O [75% oxygen, oxygen] |  | significantly less Fb expression | significant reduction in cell death |
